Values after ≈ are worked out from the molar mass of the structure shown. Active and inactive are the calls of the source. The calls are words filed in the database; no cut-off is given here.
Tests used:
[1] = test system: Staphylococcus aureus; experiment: Antibacterial activity against Staphylococcus aureus ATCC 25923 assessed as growth inhibition at 100 uM after 24 hrs by turbidimetric analysis; assay type: functional; details: for inhibition of growth at 100 µM: ATCC 25923, 24 h, read-out: GI
[2] = test system: Bacillus spizizenii; experiment: Antibacterial activity against Bacillus subtilis ATCC 6633 assessed as growth inhibition at 100 uM after 24 hrs by turbidimetric analysis; assay type: functional; details: for inhibition of growth at 100 µM: ATCC 6633, 24 h, read-out: GI
[3] = test system: Staphylococcus aureus; experiment: Antibacterial activity against Staphylococcus aureus ATCC 25923 assessed as growth inhibition after 24 hrs by turbidimetric analysis; assay type: functional; details: ATCC 25923, 24 h
[4] = test system: Bacillus spizizenii; experiment: Antibacterial activity against Bacillus subtilis ATCC 6633 assessed as growth inhibition after 24 hrs by turbidimetric analysis; assay type: functional; details: ATCC 6633, 24 h
[5] = test system: Streptomyces scabiei; experiment: Antibacterial activity against Streptomyces scabiei CGMCC4.7610246 assessed as growth inhibition after 36 hrs by turbidimetric analysis; assay type: functional; details: CGMCC4.7610246, 36 h
[6] = test system: Streptomyces scabiei; experiment: Antibacterial activity against Streptomyces scabiei CGMCC4.7610246 assessed as growth inhibition at 100 uM after 36 hrs by turbidimetric analysis; assay type: functional, organism-based
[7] = test system: Ralstonia solanacearum; experiment: Antibacterial activity against Ralstonia solanacearum assessed as growth inhibition at 100 uM after 24 hrs by turbidimetric analysis; assay type: functional, organism-based
[8] = test system: Escherichia coli; experiment: Antibacterial activity against Escherichia coli assessed as growth inhibition at 100 uM after 24 hrs by turbidimetric analysis; assay type: functional, organism-based
[9] = test system: Staphylococcus aureus; experiment: Antibacterial activity against Staphylococcus aureus ATCC 25923 assessed as growth inhibition after 2 to 24 hrs; assay type: functional, organism-based

Row | SMILES | growth inhibition (GI) [1] | growth inhibition (GI) [2] | MIC [3] | MIC [4] | MIC [5] | growth inhibition (GI) [6] | also measured
1 | CCCCCCCCCCCCCCCOC(=O)[C@]12CCC(C)(C)C[C@H]1C1=CC[C@@H]3[C@@]4(C)[C@@H](O)[C@H](O)[C@H](O)C(C)(C)[C@@H]4CC[C@@]3(C)[C@]1(C)CC2 | Active | Active |  |  |  |  | 
2 | CN[C@@H]1[C@H](O[C@H]2[C@H](O[C@H]3[C@H](O)[C@@H](O)[C@H](N=C(N)N)[C@@H](O)[C@@H]3N=C(N)N)O[C@@H](C)[C@]2(O)C=O)O[C@@H](CO)[C@H](O)[C@H]1O [STREPTOMYCIN] |  |  | ≥ 100 µM | 2 µM (≈ 1.16 µg/mL) | 4 µM (≈ 2.33 µg/mL) |  | 
3 | C[C@H]1[C@H](C)CC[C@]2(C(=O)OCc3ccc(Cl)cc3)CC[C@]3(C)C(=CC[C@@H]4[C@@]5(C)[C@@H](O)[C@H](O)[C@H](O)C(C)(C)[C@@H]5CC[C@]43C)[C@H]12 | Active | Active |  |  |  | inactive | 
4 | CC1(C)CC[C@]2(C(=O)OCc3ccccc3[N+](=O)[O-])CC[C@]3(C)C(=CC[C@@H]4[C@@]5(C)[C@@H](O)[C@H](O)[C@H](O)C(C)(C)[C@@H]5CC[C@]43C)[C@@H]2C1 | Active | Active |  |  |  | inactive | 
5 | CCCCOC(=O)[C@]12CC[C@@H](C)[C@H](C)[C@H]1C1=CC[C@@H]3[C@@]4(C)[C@@H](O)[C@H](O)[C@H](O)C(C)(C)[C@@H]4CC[C@@]3(C)[C@]1(C)CC2 |  |  | 8 µM (≈ 4.36 µg/mL) | 64 µM (≈ 34.9 µg/mL) | ≥ 100 µM |  | inhibition of growth at 100 µM [1]: > 95%; inhibition of growth at 100 µM [2]: > 95%
6 | CC1(C)CC[C@]2(C(=O)OCc3ccccc3Cl)CC[C@]3(C)C(=CC[C@@H]4[C@@]5(C)[C@@H](O)[C@H](O)[C@H](O)C(C)(C)[C@@H]5CC[C@]43C)[C@@H]2C1 | Active | Active |  |  |  | inactive | 
7 | CCCOC(=O)[C@]12CC[C@@H](C)[C@H](C)[C@H]1C1=CC[C@@H]3[C@@]4(C)[C@@H](O)[C@H](O)[C@H](O)C(C)(C)[C@@H]4CC[C@@]3(C)[C@]1(C)CC2 |  |  | 8 µM (≈ 4.25 µg/mL) | 32 µM (≈ 17 µg/mL) | ≥ 100 µM |  | inhibition of growth at 100 µM [1]: > 95%; inhibition of growth at 100 µM [2]: > 95%
8 | CC1(C)CC[C@]2(C(=O)O)CC[C@]3(C)C(=CC[C@@H]4[C@@]5(C)C=CC(=O)C(C)(C)[C@@H]5CC[C@]43C)[C@@H]2C1 | Active | Active |  |  |  | Active | 
9 | C[C@H]1[C@H](C)CC[C@]2(C(=O)O)CC[C@]3(C)C(=CC[C@@H]4[C@@]5(C)[C@@H](O)[C@H](O)[C@H](O)C(C)(C)[C@@H]5CC[C@]43C)[C@H]12 | Active | Active |  |  |  | Active | 
10 | C[C@H]1[C@H](C)CC[C@]2(C(=O)OCc3ccccc3)CC[C@]3(C)C(=CC[C@@H]4[C@@]5(C)C=CC(=O)C(C)(C)[C@@H]5CC[C@]43C)[C@H]12 | Active | Active |  |  |  | Active | 
11 | C[C@H]1[C@H](C)CC[C@]2(C(=O)OCc3ccccc3[N+](=O)[O-])CC[C@]3(C)C(=CC[C@@H]4[C@@]5(C)[C@@H](O)[C@H](O)[C@H](O)C(C)(C)[C@@H]5CC[C@]43C)[C@H]12 | Active | Active |  |  |  | inactive | 
12 | CCCCCOC(=O)[C@]12CCC(C)(C)C[C@H]1C1=CC[C@@H]3[C@@]4(C)[C@@H](O)[C@H](O)[C@H](O)C(C)(C)[C@@H]4CC[C@@]3(C)[C@]1(C)CC2 | Active | Active |  |  |  |  | 
13 | CC1(C)CC[C@]2(C(=O)O)CC[C@]3(C)C(=CC[C@@H]4[C@@]5(C)[C@@H](O)[C@H](O)[C@H](O)C(C)(C)[C@@H]5CC[C@]43C)[C@@H]2C1 | Active |  |  |  |  |  | 
14 | CC1(C)CC[C@]2(C(=O)OCc3ccc(Cl)cc3)CC[C@]3(C)C(=CC[C@@H]4[C@@]5(C)[C@@H](O)[C@H](O)[C@H](O)C(C)(C)[C@@H]5CC[C@]43C)[C@@H]2C1 |  |  | 64 µM (≈ 39.2 µg/mL) | ≥ 100 µM | ≥ 100 µM | inactive | 
15 | COC(=O)[C@]12CC[C@@H](C)[C@H](C)[C@H]1C1=CC[C@@H]3[C@@]4(C)[C@@H](O)[C@H](O)[C@H](O)C(C)(C)[C@@H]4CC[C@@]3(C)[C@]1(C)CC2 |  |  | 8 µM (≈ 4.02 µg/mL) | 32 µM (≈ 16.1 µg/mL) | 64 µM (≈ 32.2 µg/mL) |  | inhibition of growth at 100 µM [1]: > 95%; inhibition of growth at 100 µM [2]: > 95%
16 | CCCCCCCCCCCCCCCOC(=O)[C@]12CC[C@@H](C)[C@H](C)[C@H]1C1=CC[C@@H]3[C@@]4(C)[C@@H](O)[C@H](O)[C@H](O)C(C)(C)[C@@H]4CC[C@@]3(C)[C@]1(C)CC2 | Active | Active |  |  |  |  | 
17 | CC(C)OC(=O)[C@]12CCC(C)(C)C[C@H]1C1=CC[C@@H]3[C@@]4(C)[C@@H](O)[C@H](O)[C@H](O)C(C)(C)[C@@H]4CC[C@@]3(C)[C@]1(C)CC2 |  |  | 8 µM (≈ 4.25 µg/mL) | 64 µM (≈ 34 µg/mL) | ≥ 100 µM |  | inhibition of growth at 100 µM [1]: > 95%; inhibition of growth at 100 µM [2]: > 95%
18 | C[C@H]1[C@H](C)CC[C@]2(C(=O)OCc3ccccc3)CC[C@]3(C)C(=CC[C@@H]4[C@@]5(C)[C@H]6O[C@H]6[C@H](O)C(C)(C)[C@@H]5CC[C@]43C)[C@H]12 | Active | Active |  |  |  | Active | growth inhibition (GI) [7]: Active; growth inhibition (GI) [8]: Active
19 | C[C@H]1[C@H](C)CC[C@]2(C(=O)OCc3ccccc3)CC[C@]3(C)C(=CC[C@@H]4[C@@]5(C)[C@H]6O[C@H]6C(=O)C(C)(C)[C@@H]5CC[C@]43C)[C@H]12 |  | Active |  |  |  | Active | 
20 | C[C@H]1[C@H](C)CC[C@]2(C(=O)OCc3ccccc3)CC[C@]3(C)C(=CC[C@@H]4[C@@]5(C)[C@H]6O[C@H]6[C@@H](O)C(C)(C)[C@@H]5CC[C@]43C)[C@H]12 | Active | Active |  |  |  | Active | growth inhibition (GI) [7]: Active; growth inhibition (GI) [8]: Active
21 | C[C@H]1[C@H](C)CC[C@]2(C(=O)OCc3ccc([N+](=O)[O-])cc3)CC[C@]3(C)C(=CC[C@@H]4[C@@]5(C)[C@@H](O)[C@H](O)[C@H](O)C(C)(C)[C@@H]5CC[C@]43C)[C@H]12 | Active | Active |  |  |  | inactive | 
22 | CC1(C)S[C@@H]2[C@H](NC(=O)[C@H](N)c3ccccc3)C(=O)N2[C@H]1C(=O)O [AMPICILLIN] |  |  | 4 µM (≈ 1.4 µg/mL) | ≥ 100 µM | ≥ 100 µM |  | 
23 | CC1(C)CC[C@]2(C(=O)O)CC[C@]3(C)C(=CC[C@@H]4[C@@]5(C)[C@H]6O[C@H]6C(=O)C(C)(C)[C@@H]5CC[C@]43C)[C@@H]2C1 |  | Active |  |  |  | Active | 
24 | CCCCOC(=O)[C@]12CCC(C)(C)C[C@H]1C1=CC[C@@H]3[C@@]4(C)[C@@H](O)[C@H](O)[C@H](O)C(C)(C)[C@@H]4CC[C@@]3(C)[C@]1(C)CC2 |  |  | 8 µM (≈ 4.36 µg/mL) | ≥ 100 µM | ≥ 100 µM |  | inhibition of growth at 100 µM [1]: > 95%; inhibition of growth at 100 µM [2]: > 95%
25 | CCCOC(=O)[C@]12CCC(C)(C)C[C@H]1C1=CC[C@@H]3[C@@]4(C)[C@@H](O)[C@H](O)[C@H](O)C(C)(C)[C@@H]4CC[C@@]3(C)[C@]1(C)CC2 |  |  | 2 µM (≈ 1.06 µg/mL) | 64 µM (≈ 34 µg/mL) | ≥ 100 µM |  | growth inhibition (GI) [9]: Dose-dependent effect; inhibition of growth at 100 µM [1]: > 95%; inhibition of growth at 100 µM [2]: > 95%
26 | C[C@H]1[C@H](C)CC[C@]2(C(=O)OCc3ccccc3Cl)CC[C@]3(C)C(=CC[C@@H]4[C@@]5(C)[C@@H](O)[C@H](O)[C@H](O)C(C)(C)[C@@H]5CC[C@]43C)[C@H]12 | Active | Active |  |  |  | inactive | 
27 | C[C@H]1[C@H](C)CC[C@]2(C(=O)OCc3ccccc3)CC[C@]3(C)C(=CC[C@@H]4[C@@]5(C)[C@@H](O)[C@H](O)[C@H](O)C(C)(C)[C@@H]5CC[C@]43C)[C@H]12 | Active |  |  |  |  |  | 
28 | CC1(C)CC[C@]2(C(=O)OCc3ccc([N+](=O)[O-])cc3)CC[C@]3(C)C(=CC[C@@H]4[C@@]5(C)[C@@H](O)[C@H](O)[C@H](O)C(C)(C)[C@@H]5CC[C@]43C)[C@@H]2C1 | Active | Active |  |  |  | inactive | 
29 | CCCCCOC(=O)[C@]12CC[C@@H](C)[C@H](C)[C@H]1C1=CC[C@@H]3[C@@]4(C)[C@@H](O)[C@H](O)[C@H](O)C(C)(C)[C@@H]4CC[C@@]3(C)[C@]1(C)CC2 | Active | Active |  |  |  |  | 

Source: ChEMBL document CHEMBL3414456, “Pentacyclic triterpene derivatives possessing polyhydroxyl ring A inhibit gram-positive bacteria growth by regulating metabolism and virulence genes expression” (2015)
